Measurements published in ChEMBL document CHEMBL5380782, “Design, Biological Evaluation, and Computer-Aided Analysis of Dihydrothiazepines as Selective Antichlamydial Agents” (J Med Chem, 2023).

What was measured:
Nakaseomyces glabratus = assay: Antimicrobial activity against Candida glabrata 2001 assessed as microbial growth inhibition by broth microdilution method; type: functional
[1] = Cytotoxicity against HEp-2 cells assessed as cell viability at 256 ug/ml incubated for 20 hrs by XTT assay relative to control; type: toxicity, cell-based; settings: human, at 256 µg/mL, read-out: Activity
[2] = Stability of compound in simulated intestinal fluid assessed as compound remaining at 2 mg/ml measured after 24 hrs by HPLC analysis; type: ADME; settings: read-out: Stability
[3] = Mutagenicity in Salmonella typhimurium TA100 assessed as mutagenic index ratio at 500 ug pretreated for 90 mins measured after 66 hrs by AMES test; type: toxicity, Salmonella enterica subsp. enterica serovar Typhimurium; settings: in vivo, 67.5 h, dose 500 µg
[4] = Mutagenicity in Salmonella typhimurium TA98 assessed as number of revertants per plate at 5000 ug pretreated for 90 mins measured after 66 hrs by AMES test (reference value: 25.67 +/- 5.51); type: toxicity, Salmonella enterica subsp. enterica serovar Typhimurium; settings: in vivo, 67.5 h, dose 5000 µg
[5] = Mutagenicity in Salmonella typhimurium TA100 assessed as mutagenic index ratio at 50 ug pretreated for 90 mins measured after 66 hrs by AMES test; type: toxicity, Salmonella enterica subsp. enterica serovar Typhimurium; settings: in vivo, 67.5 h, dose 50 µg
[6] = Mutagenicity in Salmonella typhimurium TA100 assessed as number of revertants per plate at 150 ug pretreated for 90 mins measured after 66 hrs in presence of S9 by AMES test (reference value: 201 +/- 9.90); type: toxicity, Salmonella enterica subsp. enterica serovar Typhimurium; settings: in vivo, 67.5 h, dose 150 µg
[7] = Mutagenicity in Salmonella typhimurium TA98 assessed as mutagenic index ratio at 50 ug pretreated for 90 mins measured after 66 hrs by AMES test; type: toxicity, Salmonella enterica subsp. enterica serovar Typhimurium; settings: in vivo, 67.5 h, dose 50 µg
[8] = Mutagenicity in Salmonella typhimurium TA98 assessed as number of revertants per plate at 500 ug pretreated for 90 mins measured after 66 hrs in presence of S9 fraction by AMES test (reference value: 24.33 +/- 9.50); type: toxicity, subcellular, Salmonella enterica subsp. enterica serovar Typhimurium; settings: s9, 67.5 h, dose 500 µg
Pichia kudriavzevii = assay: Antimicrobial activity against Pichia kudriavzevii 6558 assessed as microbial growth inhibition by broth microdilution method; type: functional
Staphylococcus aureus = assay: Antimicrobial activity against Staphylococcus aureus USA 300 JE2 assessed as microbial growth inhibition incubated for 24 hrs by TTC staining based assay; type: functional
Escherichia coli = assay: Antimicrobial activity against non-pathogenic Escherichia coli ATCC MG1655 assessed as microbial growth inhibition incubated for 24 hrs by TTC staining based assay; type: functional
[9] = Mutagenicity in Salmonella typhimurium TA100 assessed as mutagenic index ratio at 500 ug pretreated for 90 mins measured after 66 hrs in presence of S9 by AMES test; type: toxicity, Salmonella enterica subsp. enterica serovar Typhimurium; settings: in vivo, 67.5 h, dose 500 µg
Pseudomonas aeruginosa = assay: Antimicrobial activity against Pseudomonas aeruginosa PA01 assessed as microbial growth inhibition incubated for 24 hrs by TTC staining based assay; type: functional
[10] = Stability of compound in human serum assessed as compound remaining at 2 mg/ml measured after 24 hrs by HPLC analysis; type: ADME, cell-free; settings: read-out: Stability
[11] = Stability of compound in simulated gastric fluid assessed as compound remaining at 2 mg/ml measured after 24 hrs by HPLC analysis; type: ADME; settings: read-out: Stability
[12] = Mutagenicity in Salmonella typhimurium TA100 assessed as mutagenic index ratio at 50 ug pretreated for 90 mins measured after 66 hrs in presence of S9 by AMES test; type: toxicity, Salmonella enterica subsp. enterica serovar Typhimurium; settings: in vivo, 67.5 h, dose 50 µg
[13] = Stability of compound in simulated gastric fluid assessed as compound remaining at 2 mg/ml measured after 180 mins by HPLC analysis; type: ADME; settings: read-out: Stability
[14] = Mutagenicity in Salmonella typhimurium TA100 assessed as number of revertants per plate at 50 ug pretreated for 90 mins measured after 66 hrs by AMES test (reference value: 206 +/- 7.07); type: toxicity, Salmonella enterica subsp. enterica serovar Typhimurium; settings: in vivo, 67.5 h, dose 50 µg
[15] = Mutagenicity in Salmonella typhimurium TA100 assessed as mutagenic index ratio at 150 ug pretreated for 90 mins measured after 66 hrs in presence of S9 by AMES test; type: toxicity, Salmonella enterica subsp. enterica serovar Typhimurium; settings: in vivo, 67.5 h, dose 150 µg
Acinetobacter baumannii = assay: Antimicrobial activity against Acinetobacter baumannii 2208 assessed as microbial growth inhibition incubated for 24 hrs by TTC staining based assay; type: functional
[16] = Mutagenicity in Salmonella typhimurium TA98 assessed as mutagenic index ratio at 5000 ug pretreated for 90 mins measured after 66 hrs by AMES test; type: toxicity, Salmonella enterica subsp. enterica serovar Typhimurium; settings: in vivo, 67.5 h, dose 5000 µg
[17] = Mutagenicity in Salmonella typhimurium TA98 assessed as number of revertants per plate at 500 ug pretreated for 90 mins measured after 66 hrs by AMES test (reference value: 25.67 +/- 5.51); type: toxicity, Salmonella enterica subsp. enterica serovar Typhimurium; settings: in vivo, 67.5 h, dose 500 µg
[18] = Mutagenicity in Salmonella typhimurium TA98 assessed as mutagenic index ratio at 5000 ug pretreated for 90 mins measured after 66 hrs in presence of S9 fraction by AMES test; type: toxicity, subcellular, Salmonella enterica subsp. enterica serovar Typhimurium; settings: s9, 67.5 h, dose 5000 µg
Thomasclavelia ramosa = assay: Antimicrobial activity against Clostridium ramosum DSM 1402 assessed as microbial growth inhibition incubated for 48 hrs; type: functional
[19] = Mutagenicity in Salmonella typhimurium TA100 assessed as number of revertants per plate at 500 ug pretreated for 90 mins measured after 66 hrs by AMES test (reference value: 206 +/- 7.07); type: toxicity, Salmonella enterica subsp. enterica serovar Typhimurium; settings: in vivo, 67.5 h, dose 500 µg
[20] = Mutagenicity in Salmonella typhimurium TA100 assessed as mutagenic index ratio at 1500 ug pretreated for 90 mins measured after 66 hrs by AMES test; type: toxicity, Salmonella enterica subsp. enterica serovar Typhimurium; settings: in vivo, 67.5 h, dose 1500 µg
[21] = Mutagenicity in Salmonella typhimurium TA98 assessed as mutagenic index ratio at 150 ug pretreated for 90 mins measured after 66 hrs in presence of S9 fraction by AMES test; type: toxicity, subcellular, Salmonella enterica subsp. enterica serovar Typhimurium; settings: s9, 67.5 h, dose 150 µg
[22] = Mutagenicity in Salmonella typhimurium TA98 assessed as number of revertants per plate at 50 ug pretreated for 90 mins measured after 66 hrs in presence of S9 fraction by AMES test (reference value: 24.33 +/- 9.50); type: toxicity, subcellular, Salmonella enterica subsp. enterica serovar Typhimurium; settings: s9, 67.5 h, dose 50 µg
Candida tropicalis = assay: Antimicrobial activity against Candida tropicalis 750 assessed as microbial growth inhibition by broth microdilution method; type: functional
[23] = Stability of compound in human serum assessed as compound remaining at 2 mg/ml measured after 180 mins by HPLC analysis; type: ADME, cell-free; settings: read-out: Stability
[24] = Mutagenicity in Salmonella typhimurium TA98 assessed as mutagenic index ratio at 1500 ug pretreated for 90 mins measured after 66 hrs by AMES test; type: toxicity, Salmonella enterica subsp. enterica serovar Typhimurium; settings: in vivo, 67.5 h, dose 1500 µg
Anaerostipes caccae = assay: Antimicrobial activity against Anaerostipes caccae […] assessed as microbial growth inhibition incubated for 48 hrs; type: functional
[25] = Mutagenicity in Salmonella typhimurium TA100 assessed as number of revertants per plate at 150 ug pretreated for 90 mins measured after 66 hrs by AMES test (reference value: 206 +/- 7.07); type: toxicity, Salmonella enterica subsp. enterica serovar Typhimurium; settings: in vivo, 67.5 h, dose 150 µg
Chlamydia trachomatis = assay: Inhibition of recombinant Chlamydia trachomatis ClpX ATPase activity assessed as reduction in ATP consumption at 25 ug/ml incubated for 60 mins by Kinase Glo assay relative to control; settings: dose 25.0 µg/ml
[26] = Mutagenicity in Salmonella typhimurium TA100 assessed as number of revertants per plate at 50 ug pretreated for 90 mins measured after 66 hrs in presence of S9 by AMES test (reference value: 201 +/- 9.90); type: toxicity, Salmonella enterica subsp. enterica serovar Typhimurium; settings: in vivo, 67.5 h, dose 50 µg

With `N#Cc1ccccc1C1Sc2ccccc2NC2=C1C(=O)c1ccccc12` (stereo unspecified) the MIC (Nakaseomyces glabratus) was > 1000 µg/mL, the viability at 20 h, 256 ug/ml [1] was 50% and the remaining at 24 h, 2 mg/ml [2] was 85%. For the same compound, the Ratio [3] was 1.13, the Activity [4] was 37.5 and the Ratio [5] was 0.92. It also gave an Activity [6] of 187, a Ratio [7] of 1.01 and an Activity [8] of 43.5. For the same compound, the MIC (Pichia kudriavzevii) was > 1000 µg/mL, the MIC (Staphylococcus aureus) was > 125 µg/mL and the MIC (Escherichia coli) was > 125 µg/mL. For the same compound, the Ratio [9] was 0.95, the MIC (Pseudomonas aeruginosa) was > 125 µg/mL and the remaining at 24 h, 2 mg/ml [10] was 80%. It also gave a remaining at 24 h, 2 mg/ml [11] of 70%, a Ratio [12] of 0.92 and a remaining at 3 h, 2 mg/ml [13] of 90%. For the same compound, the Activity [14] was 190.5, the Ratio [15] was 0.93 and the MIC (Acinetobacter baumannii) was > 125 µg/mL. It also gave a Ratio [16] of 1.46, an Activity [17] of 38 and a Ratio [18] of 1.78. The MIC (Thomasclavelia ramosa) was > 125 µg/mL, the Activity [19] was 233 and the Ratio [20] was 1.16. The Ratio [21] was 1.43, the Activity [22] was 32 and the MIC (Candida tropicalis) was > 1000 µg/mL. The remaining at 3 h, 2 mg/ml [23] was 100%, the Ratio [24] was 1.51 and the MIC (Anaerostipes caccae) was > 125 µg/mL. For the same compound, the Activity [25] was 187.5, the inhibition (Chlamydia trachomatis) was 20% and the Activity [26] was 185.
